One compound from patent US4907606A, “Tobacco compositions, method and device for releasing essentially pure nicotine” (AB Leo, priority 1984, dated 1990) can be followed below.

The nature of the series: Bioavailability: blood plasma nicotine levels after inhalation of air from the glass columns. It counts as in vivo. Particulars: human, inhaled or intranasal, test persons abstained from nicotine for 12 h, read-out: Plasma nicotine, peak value. The protocol:
Untreated tobacco was used as reference.
The bioavailability of nicotine, i.e. the blood plasma nicotine levels, after inhalation of air from the glass columns prepared as described above at 65° C. and 75° C., respectively was also investigated. The test persons had abstained from smoking or having nicotine in any other way for 12 h before the test.

Read-outs that look alike come from different tables or passages of the source.

Consider `CN1CCCC1c1cccnc1` (centres unmarked) [nicotine], for which the Cmax (column at 65 °C) was determined as 5 ng/mL and the Cmax (column at 75 °C) fell in the range of 10 to 15 ng/mL.
